PMC11864979, “First-in-class ultralong-target-residence-time p38α inhibitors as a mitosis-targeted therapy for colorectal cancer” (Nature Cancer, 2025)
Read-outs that look alike come from different tables or passages of the source.

How the values were obtained:
Assay in all cases: selectivity profiling in a panel of 340 wild-type kinases (Reaction Biology Europe)
Type in all cases: binding
340 wild-type kinases [1] = biological target: T1, 340 wild-type kinases (Homo sapiens, UniProt Q16620)
T1 construct: purchased Reaction Biology Europe

340 wild-type kinases [2] = biological target: T2, 340 wild-type kinases (Homo sapiens, UniProt P51955)
T2 construct: purchased Reaction Biology Europe
T2 sequence (P51955 1-445): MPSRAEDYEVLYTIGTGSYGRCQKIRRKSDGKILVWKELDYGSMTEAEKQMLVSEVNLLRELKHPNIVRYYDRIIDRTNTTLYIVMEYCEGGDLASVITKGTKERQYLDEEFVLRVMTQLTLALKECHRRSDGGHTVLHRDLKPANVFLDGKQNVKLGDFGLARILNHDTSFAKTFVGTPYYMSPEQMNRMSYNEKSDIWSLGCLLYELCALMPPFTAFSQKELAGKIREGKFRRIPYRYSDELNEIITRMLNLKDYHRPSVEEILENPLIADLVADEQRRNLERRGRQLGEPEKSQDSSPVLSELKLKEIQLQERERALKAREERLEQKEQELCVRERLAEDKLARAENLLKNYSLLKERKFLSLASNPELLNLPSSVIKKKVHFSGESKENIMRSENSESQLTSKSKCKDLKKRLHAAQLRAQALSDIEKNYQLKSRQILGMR

340 wild-type kinases [3] = biological target: T3, 340 wild-type kinases (Homo sapiens, UniProt Q14164)
T3 construct: purchased Reaction Biology Europe
T3 sequence (Q14164 1-716): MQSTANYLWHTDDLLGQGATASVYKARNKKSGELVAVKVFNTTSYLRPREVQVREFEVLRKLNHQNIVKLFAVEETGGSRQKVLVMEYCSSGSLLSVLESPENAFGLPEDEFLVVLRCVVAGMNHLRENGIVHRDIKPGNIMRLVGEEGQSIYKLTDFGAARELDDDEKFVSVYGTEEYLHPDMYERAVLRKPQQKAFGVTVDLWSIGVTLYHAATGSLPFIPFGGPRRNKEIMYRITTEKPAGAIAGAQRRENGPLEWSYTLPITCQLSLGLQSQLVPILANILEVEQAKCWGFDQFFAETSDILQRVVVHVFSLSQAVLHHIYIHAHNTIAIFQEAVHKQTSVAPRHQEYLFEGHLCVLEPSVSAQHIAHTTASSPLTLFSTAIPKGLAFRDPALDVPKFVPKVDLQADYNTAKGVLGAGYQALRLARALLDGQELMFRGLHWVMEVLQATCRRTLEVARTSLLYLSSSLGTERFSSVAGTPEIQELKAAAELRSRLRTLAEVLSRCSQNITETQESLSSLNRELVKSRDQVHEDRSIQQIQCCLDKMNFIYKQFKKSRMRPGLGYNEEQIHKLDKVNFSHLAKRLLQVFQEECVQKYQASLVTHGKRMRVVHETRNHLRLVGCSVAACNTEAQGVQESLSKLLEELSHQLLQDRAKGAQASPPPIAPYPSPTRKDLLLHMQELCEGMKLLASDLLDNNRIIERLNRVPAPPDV

340 wild-type kinases [4] = biological target: T4, 340 wild-type kinases (Homo sapiens, UniProt P05771)
T4 construct: purchased Reaction Biology Europe

340 wild-type kinases [5] = biological target: T5, 340 wild-type kinases (Homo sapiens, UniProt P43405)
T5 construct: purchased Reaction Biology Europe

340 wild-type kinases [6] = biological target: T6, 340 wild-type kinases (Homo sapiens, UniProt P41743)
T6 construct: purchased Reaction Biology Europe
T6 sequence (P41743 1-596): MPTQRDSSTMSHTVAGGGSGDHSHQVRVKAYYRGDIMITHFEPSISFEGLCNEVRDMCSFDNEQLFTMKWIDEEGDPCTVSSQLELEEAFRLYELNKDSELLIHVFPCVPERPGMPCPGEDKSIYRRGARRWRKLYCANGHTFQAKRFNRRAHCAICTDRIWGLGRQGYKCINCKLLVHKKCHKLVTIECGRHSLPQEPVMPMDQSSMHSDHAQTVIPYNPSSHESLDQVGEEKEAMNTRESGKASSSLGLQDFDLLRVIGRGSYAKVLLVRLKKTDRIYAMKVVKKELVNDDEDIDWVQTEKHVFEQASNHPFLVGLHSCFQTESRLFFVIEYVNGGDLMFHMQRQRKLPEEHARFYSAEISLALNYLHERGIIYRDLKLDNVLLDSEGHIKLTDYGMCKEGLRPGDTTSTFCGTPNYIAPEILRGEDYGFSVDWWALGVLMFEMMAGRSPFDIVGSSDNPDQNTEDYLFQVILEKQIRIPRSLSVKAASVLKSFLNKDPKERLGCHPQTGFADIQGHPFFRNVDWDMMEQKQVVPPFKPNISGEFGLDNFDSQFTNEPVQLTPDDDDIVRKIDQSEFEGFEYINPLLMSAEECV

340 wild-type kinases [7] = biological target: T7, 340 wild-type kinases (Homo sapiens, UniProt P31749)
T7 construct: purchased Reaction Biology Europe
T7 sequence (P31749 whole entry): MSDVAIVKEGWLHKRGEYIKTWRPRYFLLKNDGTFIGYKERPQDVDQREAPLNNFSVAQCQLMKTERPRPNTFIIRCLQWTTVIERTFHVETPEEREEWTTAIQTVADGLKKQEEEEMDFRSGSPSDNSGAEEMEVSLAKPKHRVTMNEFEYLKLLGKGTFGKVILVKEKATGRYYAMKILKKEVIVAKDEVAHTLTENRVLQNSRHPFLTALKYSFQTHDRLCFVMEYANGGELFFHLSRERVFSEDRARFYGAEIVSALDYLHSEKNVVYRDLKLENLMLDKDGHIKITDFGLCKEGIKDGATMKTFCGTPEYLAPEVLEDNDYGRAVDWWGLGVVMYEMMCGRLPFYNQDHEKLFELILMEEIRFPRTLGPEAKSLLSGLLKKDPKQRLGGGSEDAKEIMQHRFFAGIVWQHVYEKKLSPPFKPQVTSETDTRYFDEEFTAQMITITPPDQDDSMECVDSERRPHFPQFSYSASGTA

T1 sequence (Q16620 32-822): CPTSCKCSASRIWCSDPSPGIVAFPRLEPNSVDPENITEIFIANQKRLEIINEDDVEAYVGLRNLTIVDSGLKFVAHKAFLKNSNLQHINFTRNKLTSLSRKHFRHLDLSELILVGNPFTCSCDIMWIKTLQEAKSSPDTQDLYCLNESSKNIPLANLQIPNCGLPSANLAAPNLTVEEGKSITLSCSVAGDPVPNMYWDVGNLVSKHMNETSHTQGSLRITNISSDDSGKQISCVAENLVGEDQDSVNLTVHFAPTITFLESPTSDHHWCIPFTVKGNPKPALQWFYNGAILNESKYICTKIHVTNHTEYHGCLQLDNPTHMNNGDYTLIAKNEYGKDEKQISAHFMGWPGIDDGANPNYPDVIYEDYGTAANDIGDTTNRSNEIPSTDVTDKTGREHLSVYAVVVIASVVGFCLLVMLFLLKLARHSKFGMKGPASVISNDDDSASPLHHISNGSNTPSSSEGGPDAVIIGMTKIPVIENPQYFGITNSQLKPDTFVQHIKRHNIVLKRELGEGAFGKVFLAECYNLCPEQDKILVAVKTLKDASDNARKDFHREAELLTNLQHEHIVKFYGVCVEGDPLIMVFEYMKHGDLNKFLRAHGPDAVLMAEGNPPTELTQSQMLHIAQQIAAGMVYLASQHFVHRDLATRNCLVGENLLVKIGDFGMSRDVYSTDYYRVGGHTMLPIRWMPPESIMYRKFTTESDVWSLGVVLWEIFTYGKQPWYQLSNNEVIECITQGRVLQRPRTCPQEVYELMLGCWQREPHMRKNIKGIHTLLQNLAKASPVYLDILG

CNC(=O)c1ccc2c(c1)C(=O)c1ccc(Nc3ccc(F)c(NC(=O)C4CC4)c3)cc1CC2 [Compound 2015]
remaining activity at 0.2 µM (340 wild-type kinases [1]; 0.2 µM 2015, read-out: TRKB residual activity): 99.7% | remaining activity at 1 µM (340 wild-type kinases [1]; 1 µM 2015, read-out: TRKB residual activity): 91.3% | remaining activity at 0.2 µM (340 wild-type kinases [1]; TRKB, 0.2 µM, read-out: residual activity): 99.7% | remaining activity at 1 µM (340 wild-type kinases [1]; TRKB, 1 µM, read-out: residual activity): 91.3% | remaining activity at 0.2 µM (340 wild-type kinases [2]; 0.2 µM 2015, read-out: NEK2 residual activity): 104% | remaining activity at 1 µM (340 wild-type kinases [2]; 1 µM 2015, read-out: NEK2 residual activity): 95% | remaining activity at 0.2 µM (340 wild-type kinases [2]; NEK2, 0.2 µM, read-out: residual activity): 104% | remaining activity at 1 µM (340 wild-type kinases [2]; NEK2, 1 µM, read-out: residual activity): 95% | remaining activity at 0.2 µM (340 wild-type kinases [3]; 0.2 µM 2015, read-out: IKKepsilon residual activity): 103% | remaining activity at 1 µM (340 wild-type kinases [3]; 1 µM 2015, read-out: IKKepsilon residual activity): 92.6% | remaining activity at 0.2 µM (340 wild-type kinases [3]; IKKepsilon, 0.2 µM, read-out: residual activity): 103% | remaining activity at 1 µM (340 wild-type kinases [3]; IKKepsilon, 1 µM, read-out: residual activity): 92.6% | remaining activity at 0.2 µM (340 wild-type kinases [4]; 0.2 µM 2015, read-out: PKCbeta1 residual activity): 109% | remaining activity at 1 µM (340 wild-type kinases [4]; 1 µM 2015, read-out: PKCbeta1 residual activity): 100% | remaining activity at 0.2 µM (340 wild-type kinases [4]; PKCbeta1, 0.2 µM, read-out: residual activity): 109% | remaining activity at 1 µM (340 wild-type kinases [4]; PKCbeta1, 1 µM, read-out: residual activity): 100% | remaining activity at 0.2 µM (340 wild-type kinases [4]; PKCbeta2, 0.2 µM, read-out: residual activity): 103% | remaining activity at 1 µM (340 wild-type kinases [4]; PKCbeta2, 1 µM, read-out: residual activity): 109% | remaining activity at 0.2 µM (340 wild-type kinases [5]; 0.2 µM 2015, read-out: SYK residual activity): 95.8% | remaining activity at 1 µM (340 wild-type kinases [5]; 1 µM 2015, read-out: SYK residual activity): 85.6% | remaining activity at 0.2 µM (340 wild-type kinases [5]; SYK, 0.2 µM, read-out: residual activity): 95.8% | remaining activity at 1 µM (340 wild-type kinases [5]; SYK, 1 µM, read-out: residual activity): 85.6% | remaining activity at 0.2 µM (340 wild-type kinases [6]; 0.2 µM 2015, read-out: PKCiota residual activity): 104% | remaining activity at 1 µM (340 wild-type kinases [6]; 1 µM 2015, read-out: PKCiota residual activity): 92% | remaining activity at 0.2 µM (340 wild-type kinases [6]; PKCiota, 0.2 µM, read-out: residual activity): 104% | remaining activity at 1 µM (340 wild-type kinases [6]; PKCiota, 1 µM, read-out: residual activity): 92% | remaining activity at 0.2 µM (340 wild-type kinases [7]; 0.2 µM 2015, read-out: AKT1 residual activity): 100% | remaining activity at 1 µM (340 wild-type kinases [7]; 1 µM 2015, read-out: AKT1 residual activity): 98.7% | remaining activity at 0.2 µM (340 wild-type kinases [7]; AKT1, 0.2 µM, read-out: residual activity): 100% | remaining activity at 1 µM (340 wild-type kinases [7]; AKT1, 1 µM, read-out: residual activity): 98.7%
